Measured values reported in patent publication US20060177517A1, “Antiinflammtory agent and antiinflammatory medical material” (priority 2003, published 2006).

What was measured:
[1] = test system: P. gingivalis ATCC33277 strain; assay: Suppression of intraoral bacteria growth, absorbance at 595 nm; assay type: cell-based, Porphylomonas gingivalis; conditions: polyphosphoric acid concentration of 0.01%, 48 hours after treatment
Protocol: A test of suppression of bacterial growth with the polyphosphoric acid obtained according to the above production example was conducted using intraoral bacteria, Streptococcus mutans (S. mutans) and Porphylomonas gingivalis (P gingivalis). The S. mutans JC2 strain was anaerobically cultured at 37° C. using Heart infusion media. For the treated groups, polyphosphoric acid was added to the culture solutions at different concentrations (0%, 0.06%, and 0.5%). For comparison groups, phosphate buffers were added at different concentrations (0%, 0.06%, and 0.5%) to culture solutions. […] Bacterial growth was observed over time by measuring absorbance at 595 nm.

[2] = test system: inflammation at wound site; assay: Suppression of inflammation at wound site, rat dorsal wound model (HE staining); assay type: in vivo, Wistar rat; conditions: 1% solution locally injected 5 days a week
From the text: The dorsum of each 6-week-old male Wistar rat was shaved under ether anesthesia, and then a 20-mm incision was made along the long axis of the body with a depth reaching to the fascia. Both ends of the center of the wound were stitched to the fascia using a piece of string so as to produce a 5-mm-wide spindle-shaped wound model (FIG. 4). A 1% polyphosphoric acid solution was locally injected 5 days a week into each wound of the rats in the treated group. A 1% phosphate buffer was locally injected 5 days a week into each wound of the rats in the comparison group. The rats were euthanized on days 3 and 7. Tissue located in the area extending from 5 mm to the left of and 5 mm to the right of the wound center was obtained by excising skin on the fascia as shown in FIG. 4. The tissues were subjected to HE staining and then histopathological observance was carried out.

[3] = test system: Streptococcus mutans JC2 strain; assay: Suppression of intraoral bacteria growth, absorbance at 595 nm; assay type: cell-based; conditions: 24 hours after treatment
Protocol: A test of suppression of bacterial growth with the polyphosphoric acid obtained according to the above production example was conducted using intraoral bacteria, Streptococcus mutans (S. mutans) and Porphylomonas gingivalis (P gingivalis). The S. mutans JC2 strain was anaerobically cultured at 37° C. using Heart infusion media. For the treated groups, polyphosphoric acid was added to the culture solutions at different concentrations (0%, 0.06%, and 0.5%). For comparison groups, phosphate buffers were added at different concentrations (0%, 0.06%, and 0.5%) to culture solutions. The bacteria were cultured for a maximum of 2 days. […] In the meantime, the P. gingivalis ATCC33277 strain was anaerobically cultured using brain-heart-infusion media at 37° C. for the same time period as employed above by adding polyphosphoric acid at different concentrations (0%, 0.015%, 0.03%, 0.06%, 0.12%, 0.25%, and 0.5%) to culture solutions. Bacterial growth was observed over time by measuring absorbance at 595 nm.

[4] = test system: human neutrophils; assay: IL-1β production by human neutrophils treated with GMDP and/or polyphosphoric acid (ELISA); assay type: cell-based
Protocol: To confirm the effect of suppressing inflammatory cytokine production with the polyphosphoric acid obtained according to the above production example, an experiment was conducted to observe IL-1β production using human neutrophils. Neutrophils were separated from 25 ml of human blood and then suspended in a Dulbecco's Modified Eagle's Medium. […] Treatment was carried out for maximum of 5 hours at 37° C. […] The IL-1β production amount at each time point was measured using an ELISA Kit.

[5] = test system: periodontal tissue inflammation; assay: Suppression of periodontal tissue inflammation in rat artificial periodontal pockets (HE staining); assay type: in vivo, Wister rats; conditions: approx. 0.1 ml of 1% solution injected into gingival crevice every day for 10 days
Protocol: Male Wister rats (8-week-old; 10 rats in total) were anesthetized, and then the periosteum of the alveolar part of maxillary first molar tooth was stripped. Portions of approximately 2 mm were eliminated from the buccal alveolar apexes of the maxillary first molar tooth and of the maxillary second molar tooth, using a ½ round bar, thereby forming artificial periodontal pockets (gingival crevices). In the case of the treated group (5 rats), approximately 0.1 ml of 1% polyphosphoric acid solution was injected into each gingival crevice using a syringe. Furthermore, in the case of the comparison group (5 rats), only a 1% phosphate buffer was injected. This injection procedure was carried out every day for 10 days from the day following the operation for the preparation of gingival crevices. Rats that had been treated for a certain time period were euthanized under inhalation anesthesia (ether). The maxilla bones were amputated, and then the tissues were fixed for 1 day by immersion using 10% neutral buffered formalin (pH 7.4). Subsequently, the resultants were subjected to acid demineralization at room temperature for approximately 2 days. After completion of demineralization, the samples were trimmed by excision at the second molar tooth, and then paraffin-embedded with their cut surfaces positioned downward. […]

Compound: polyphosphoric acid
- bacterial growth of P. gingivalis [1]: significantly suppressed bacterial growth
- extension of the epithelia toward the centers of the wounds ([2]; day 3 after operation): significant extension
- infiltration by inflammatory cells at the wound ([2]; day 3 after operation): infiltration by inflammatory cells decreased
- epithelialization of the wound surfaces ([2]; day 7 after operation): almost completely epithelialized
- extension of the epithelia at the cut ends of the wounds, compared with the comparison group ([2]; day 7 after operation): promoted
- inflammation at the centers of the wounds ([2]; day 7 after operation): inflammation remained slight and partial on the upper parts
- bacterial growth of S. mutans ([3]; polyphosphoric acid concentration of 0.06%): significantly suppressed bacterial growth
- IL-1β production amount ([4]; GMDP plus polyphosphoric acids (0.2, 1, 5 mM), 5 hours after treatment): decreased depending on the concentrations of the polyphosphoric acids
- IL-1β production amount ([4]; GMDP plus polyphosphoric acids (0.2, 1, 5 mM), until 3 hours after treatment, versus GMDP alone): suppressed to a level similar to that of the comparison group
- IL-1β production amount ([4]; polyphosphoric acids alone (0.2, 1, 5 mM), no GMDP): almost the same at any polyphosphoric acid concentration as that in the case of the comparison group
- inflammatory cells in the peripheries of the treated sites [5]: Almost no inflammatory cells were observed

Compound: O=P(O)(O)O [phosphoric acid, reference compound]
- bacterial growth of S. mutans ([3]; phosphoric acid concentration of 0.5%): no large changes

Compound: CC(=O)NC1C(OC2C(CO)OC(O)C(NC(C)=O)C2OC(C)C(=O)NC(C)C(=O)NC(CCC(=O)O)C(N)=O)OC(CO)C(O)C1O [GMDP, N-Acetyl-D-Glucosaminyl-β(1-4)-N-acetylmuramyl-L-alanyl-D-isoglutamine, reference compound]
- IL-1β production amount ([4]; 30 μg GMDP alone, up to 5 hours): increased with time
